17 compounds from ChEMBL document CHEMBL1909046, “DrugMatrix in vitro pharmacology data” can be followed below.

The nature of experiment [1]: DRUGMATRIX: Sigma2 radioligand binding (ligand: [3H] Ifenprodil). The experiment is classed as cell membranes, Rattus norvegicus, Wistar, Brain, Membrane. The settings on record: Not Active = under 50% inhibition at 10 µM.
In experiment [2] the target is T1, Neutrophil elastase (Homo sapiens, UniProt P08246).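 Further: inhibition of neutrophil elastase enzyme activity, measured with a p-nitroanilide-linked peptide substrate; in other assays of this panel Not Active means under 50% inhibition at 10 µM.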
T1 sequence (P08246 whole entry): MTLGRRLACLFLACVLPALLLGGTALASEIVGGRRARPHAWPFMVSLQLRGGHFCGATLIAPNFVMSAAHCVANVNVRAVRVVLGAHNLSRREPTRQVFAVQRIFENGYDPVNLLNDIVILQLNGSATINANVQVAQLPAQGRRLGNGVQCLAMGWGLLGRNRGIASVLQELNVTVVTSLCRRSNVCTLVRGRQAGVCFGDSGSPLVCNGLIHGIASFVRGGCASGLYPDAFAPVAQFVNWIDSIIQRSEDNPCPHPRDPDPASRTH
The experiment is classed as tissue-based.

Experiment [3] deals with T2, C-C chemokine receptor type 4 (Homo sapiens, UniProt P51679).
T2 sequence (P51679 whole entry): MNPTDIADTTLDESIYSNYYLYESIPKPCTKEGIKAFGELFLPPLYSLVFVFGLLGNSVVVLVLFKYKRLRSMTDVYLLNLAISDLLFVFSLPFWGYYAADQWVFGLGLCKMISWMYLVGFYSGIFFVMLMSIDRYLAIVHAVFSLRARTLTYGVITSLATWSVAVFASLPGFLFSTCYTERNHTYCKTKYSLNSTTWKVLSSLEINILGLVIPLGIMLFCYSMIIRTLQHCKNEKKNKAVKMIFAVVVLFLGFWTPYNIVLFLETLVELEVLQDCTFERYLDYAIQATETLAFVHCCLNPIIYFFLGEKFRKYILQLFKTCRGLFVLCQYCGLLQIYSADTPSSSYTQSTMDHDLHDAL
Type of experiment: cell membranes, Chem-1, Membrane. The settings on record: chem-1.

The target in experiment [4] is Acetylcholinesterase (Homo sapiens, UniProt P22303). Briefly: DRUGMATRIX: Acetylcholinesterase enzyme inhibition (substrate: acetylthiocholine). The experiment is classed as cell-based, HEK293. The settings on record: Not Active = under 50% inhibition at 10 µM.
Experiment [5] addresses Mitogen-activated protein kinase 3 (Homo sapiens, UniProt P27361). Nature of the experiment: DRUGMATRIX: Protein Serine/Threonine Kinase, ERK1 enzyme inhibition (substrate: Myelin Basic Protein). The arrangement: species or system Escherichia coli. The settings on record: Not Active = under 50% inhibition at 10 µM.
Experiment [6] is described as follows: DRUGMATRIX: Potassium Channel [KATP] radioligand binding (ligand: [3H] Glyburide). Type of experiment: cell membranes, Membrane. The following applies: hit-t15; Not Active = under 50% inhibition at 10 µM.
Experiment [7] concerns the target T3, Interstitial collagenase (Homo sapiens, UniProt P03956).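 Further: MMP-1 enzyme inhibition assay using a peptide substrate; in other assays of this panel Not Active means under 50% inhibition at 10 µM.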
T3 sequence (P03956 whole entry): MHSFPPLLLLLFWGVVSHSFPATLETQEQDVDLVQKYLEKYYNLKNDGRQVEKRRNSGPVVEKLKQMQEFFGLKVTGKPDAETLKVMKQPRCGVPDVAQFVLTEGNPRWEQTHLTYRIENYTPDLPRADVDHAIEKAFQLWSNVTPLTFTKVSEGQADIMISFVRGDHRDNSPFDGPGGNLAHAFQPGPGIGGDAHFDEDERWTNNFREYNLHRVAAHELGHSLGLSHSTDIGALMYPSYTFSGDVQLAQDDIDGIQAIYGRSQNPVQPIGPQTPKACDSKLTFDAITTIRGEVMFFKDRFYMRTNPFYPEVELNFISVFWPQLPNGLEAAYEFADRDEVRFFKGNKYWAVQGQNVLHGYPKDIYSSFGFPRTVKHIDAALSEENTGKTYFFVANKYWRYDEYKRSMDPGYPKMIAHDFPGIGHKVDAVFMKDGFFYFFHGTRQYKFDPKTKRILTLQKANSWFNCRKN
Briefly: biochemical. Type of experiment: tissue-based, Rheumatoid synovial fibroblasts.

Chain of Acetylcholinesterase (P22303 whole entry): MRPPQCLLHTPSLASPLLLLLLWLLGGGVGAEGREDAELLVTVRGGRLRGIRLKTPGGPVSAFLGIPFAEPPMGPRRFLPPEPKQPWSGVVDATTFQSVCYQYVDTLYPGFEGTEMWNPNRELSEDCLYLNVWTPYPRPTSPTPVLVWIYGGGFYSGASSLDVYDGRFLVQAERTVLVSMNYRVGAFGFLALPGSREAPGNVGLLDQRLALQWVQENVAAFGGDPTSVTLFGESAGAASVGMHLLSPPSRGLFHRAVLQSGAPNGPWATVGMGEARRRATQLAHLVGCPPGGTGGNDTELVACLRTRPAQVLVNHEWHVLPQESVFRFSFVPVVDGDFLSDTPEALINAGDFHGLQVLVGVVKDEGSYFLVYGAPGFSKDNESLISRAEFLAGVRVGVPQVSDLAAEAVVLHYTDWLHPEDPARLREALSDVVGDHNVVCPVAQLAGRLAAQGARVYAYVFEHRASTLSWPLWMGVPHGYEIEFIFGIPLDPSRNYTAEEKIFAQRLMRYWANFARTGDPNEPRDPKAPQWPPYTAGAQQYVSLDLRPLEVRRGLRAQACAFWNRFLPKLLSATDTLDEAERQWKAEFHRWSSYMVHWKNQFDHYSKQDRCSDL
Chain of Mitogen-activated protein kinase 3 (P27361 whole entry): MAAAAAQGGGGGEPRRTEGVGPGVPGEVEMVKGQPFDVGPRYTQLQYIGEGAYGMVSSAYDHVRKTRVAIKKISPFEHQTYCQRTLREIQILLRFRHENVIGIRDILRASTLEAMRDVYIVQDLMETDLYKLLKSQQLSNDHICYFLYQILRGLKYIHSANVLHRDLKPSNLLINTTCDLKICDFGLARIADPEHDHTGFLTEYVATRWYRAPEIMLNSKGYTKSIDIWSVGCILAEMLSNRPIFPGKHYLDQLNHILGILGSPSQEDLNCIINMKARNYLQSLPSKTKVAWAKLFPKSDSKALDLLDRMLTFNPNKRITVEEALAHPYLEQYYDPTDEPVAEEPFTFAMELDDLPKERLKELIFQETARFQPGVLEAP

For orientation: IC50 means the concentration at which inhibition is half-maximal. For orientation: Ki means the dissociation constant of the complex between target and ligand, obtained from inhibition or displacement. As to `OCCN(CCO)c1nc(N2CCCCC2)c2nc(N(CCO)CCO)nc(N3CCCCC3)c2n1` [DIPYRIDAMOLE], the concentration for half-maximal inhibition (IC50) result in experiment [1], in experiment [2], in experiment [3], in experiment [4] (hek293), in experiment [5] and in experiment [6] was “Not Active” in each case. For the same compound, the IC50 result in experiment [7] is given as “Not Active”. In addition, the Ki result in experiment [1] and in experiment [6] was “Not Active” each time.
Turning to `O=NN(CCCl)C(=O)NC1CCCCC1` [LOMUSTINE], the IC50 result in experiment [1], in experiment [2], in experiment [3], in experiment [4] (hek293), in experiment [5] and in experiment [6] was “Not Active” each time. Also, the IC50 entry in experiment [7] is on record as “Not Active”. Besides, the Ki result in experiment [1] and in experiment [6] was “Not Active” throughout.
As for `O=c1ncn2nc(Sc3ccc(F)cc3F)ccc2c1-c1c(Cl)cccc1Cl` [NEFLAMAPIMOD], the IC50 entry in experiment [1], in experiment [2], in experiment [3], in experiment [4] (hek293), in experiment [5] and in experiment [6] was “Not Active” throughout. Besides, the IC50 entry in experiment [7] was “Not Active”. Also, the Ki result in experiment [1] and in experiment [6] was “Not Active” in each case.
With `CC[C@]1(O)C[C@H]2CN(CCc3c([nH]c4ccccc34)[C@@](C(=O)OC)(c3cc4c(cc3OC)N(C=O)[C@H]3[C@@](O)(C(=O)OC)[C@H](OC(C)=O)[C@]5(CC)C=CCN6CC[C@]43[C@@H]65)C2)C1` [VINCRISTINE], the IC50 result in experiment [1], in experiment [2], in experiment [3], in experiment [4] (hek293), in experiment [5] and in experiment [6] was “Not Active” in each case. Besides, in experiment [7], the IC50 entry is “Not Active”. The Ki result in experiment [1] and in experiment [6] was “Not Active” throughout.
Take `CSc1ccc(/C=C2/C(C)=C(CC(=O)O)c3cc(F)ccc32)cc1` [SULINDAC SULFIDE]: the IC50 entry in experiment [1], in experiment [2], in experiment [3], in experiment [4] (hek293), in experiment [5] and in experiment [6] was “Not Active” each time. Further, the IC50 entry in experiment [7] is “Not Active”. The Ki result in experiment [1] and in experiment [6] was “Not Active” in each case.
Consider `CC(=O)[C@@]1(O)CC[C@H]2[C@@H]3C[C@H](C)C4=CC(=O)CC[C@]4(C)[C@H]3CC[C@@]21C`, for which the IC50 entry in experiment [1], in experiment [2], in experiment [3], in experiment [4] (hek293), in experiment [5] and in experiment [6] was “Not Active” each time. Also, in experiment [7], the IC50 result is “Not Active”. The Ki entry in experiment [1] and in experiment [6] was “Not Active” throughout.
Turning to `Cc1noc(NS(=O)(=O)c2ccc(N)cc2)c1C` [SULFISOXAZOLE], the IC50 result in experiment [1], in experiment [2], in experiment [3], in experiment [4] (hek293), in experiment [5] and in experiment [6] was “Not Active” in each case. Also, the IC50 result in experiment [7] was “Not Active”. For the same compound, the Ki entry in experiment [1] and in experiment [6] was “Not Active” throughout.
Turning to `N[C@@H](Cc1ccc(O)c(O)c1)C(=O)O` [LEVODOPA], the IC50 entry in experiment [1], in experiment [2], in experiment [3], in experiment [4] (hek293), in experiment [5] and in experiment [6] was “Not Active” each time. Besides, the IC50 result in experiment [7] was “Not Active”. The Ki entry in experiment [1] and in experiment [6] was “Not Active” each time.
Take `NS(=O)(=O)c1cc2c(cc1Cl)NC(C(Cl)Cl)NS2(=O)=O` (stereo not drawn) [TRICHLORMETHIAZIDE]: the IC50 entry in experiment [1], in experiment [2], in experiment [3], in experiment [4] (hek293), in experiment [5] and in experiment [6] was “Not Active” throughout. Also, the IC50 entry in experiment [7] is listed as “Not Active”. Moreover, the Ki entry in experiment [1] and in experiment [6] was “Not Active” each time.
In the case of `NC[C@H]1CC[C@H](C(=O)O)CC1` [TRANEXAMIC ACID], the half-maximal inhibitory concentration (IC50) result in experiment [1], in experiment [2], in experiment [3], in experiment [4] (hek293), in experiment [5] and in experiment [6] was “Not Active” each time. The IC50 result in experiment [7] is “Not Active”. Moreover, the Ki result in experiment [1] and in experiment [6] was “Not Active” throughout.
Take `CCOC(=O)N1CCC(=C2c3ccc(Cl)cc3CCc3cccnc32)CC1` [LORATADINE]: the IC50 entry in experiment [1], in experiment [2], in experiment [3], in experiment [4] (hek293), in experiment [5] and in experiment [6] was “Not Active” each time. Also, the IC50 entry in experiment [7] is reported as “Not Active”. In addition, the Ki entry in experiment [1] and in experiment [6] was “Not Active” throughout.
On to `c1ccc([C@H]2CN3CCSC3=N2)cc1` [LEVAMISOLE], for which the IC50 in experiment [1] (read-out: IC50) was 4390 nM; in experiment [2] it was “Not Active”; in experiment [3] it was “Not Active”; in experiment [4] (hek293), “Not Active”; in experiment [5], “Not Active”; in experiment [6], “Not Active”. Further, the IC50 result in experiment [7] is “Not Active”. For the same compound, the Ki was 2700 nM in experiment [1] (read-out: Ki) and “Not Active” in experiment [6].
For `CC(C)N1CCN(c2ccc(OCC3COC(Cn4cncn4)(c4ccc(Cl)cc4Cl)O3)cc2)CC1` (stereo not drawn) [TERCONAZOLE], the IC50 is 317 nM in experiment [1] (read-out: IC50); “Not Active” in experiment [2]; “Not Active” in experiment [3]; 21600 nM in experiment [4] (read-out: IC50); “Not Active” in experiment [5]; “Not Active” in experiment [6]. Also, the half-maximal inhibitory concentration (IC50) entry in experiment [7] was “Not Active”. Also, the inhibition constant (Ki) in experiment [1] (read-out: Ki) is 195 nM; in experiment [6], “Not Active”.
`CC[C@@H](CO)NC(=O)[C@@H]1C=C2c3cccc4[nH]cc(c34)C[C@H]2N(C)C1` [METHYLERGONOVINE]: the IC50 entry in experiment [1], in experiment [2], in experiment [3], in experiment [4] (hek293), in experiment [5] and in experiment [6] was “Not Active” throughout. Moreover, the IC50 entry in experiment [7] was “Not Active”. Moreover, the Ki result in experiment [1] and in experiment [6] was “Not Active” throughout.
Turning to SODIUM NITROPRUSSIDE, the IC50 entry in experiment [1], in experiment [2], in experiment [3], in experiment [4] (hek293), in experiment [5] and in experiment [6] was “Not Active” in each case. Moreover, in experiment [7], the IC50 entry is “Not Active”. Besides, the Ki result in experiment [1], in experiment [2], in experiment [3], in experiment [4] (hek293), in experiment [5] and in experiment [6] was “Not Active” in each case. The Ki result in experiment [7] is listed as “Not Active”.
For the compound `CO[C@H]1/C=C/O[C@@]2(C)Oc3c(C)c(O)c4c(O)c(c(/C=N/N5CCN(C)CC5)c(O)c4c3C2=O)NC(=O)/C(C)=C\C=C\[C@H](C)[C@H](O)[C@@H](C)[C@@H](O)[C@@H](C)[C@H](OC(C)=O)[C@@H]1C` [RIFAMPIN], the IC50 result in experiment [1], in experiment [2], in experiment [3], in experiment [4] (hek293), in experiment [5] and in experiment [6] was “Not Active” in each case. The IC50 entry in experiment [7] is on record as “Not Active”. Further, the inhibition constant (Ki) entry in experiment [1] and in experiment [6] was “Not Active” throughout.
As for `Cc1oncc1C(=O)Nc1ccc(C(F)(F)F)cc1` [LEFLUNOMIDE], the half-maximal inhibitory concentration (IC50) result in experiment [1], in experiment [2], in experiment [3], in experiment [4] (hek293), in experiment [5] and in experiment [6] was “Not Active” each time. Moreover, in experiment [7], the IC50 entry is “Not Active”. Besides, the Ki result in experiment [1] and in experiment [6] was “Not Active” throughout.
